From ChEMBL document CHEMBL3588744, “Structure-Based Optimization of Naphthyridones into Potent ATAD2 Bromodomain Inhibitors” (J Med Chem, 2015) come the findings set out here.

One series in a line: physchem. Particulars: phosphate buffered saline, pH 7.4, solubility.
The target in series [1] is T1, Bromodomain-containing protein 4 (Homo sapiens, UniProt O60885). Kind of series: Binding affinity to BRD4 in human HUT78 cells incubated for 45 mins by mass spectrometry based bromosphere chemoproteomic assay. The series is classed as cell-based.
For series [2], the target named is Bromodomain-containing protein 1 (Homo sapiens, UniProt O95696). As to the kind of experiment: Binding affinity to BRPF2 (unknown origin) by BROMOscan panel based assay.
Bromodomain-containing protein 1, sequence (O95696 whole entry): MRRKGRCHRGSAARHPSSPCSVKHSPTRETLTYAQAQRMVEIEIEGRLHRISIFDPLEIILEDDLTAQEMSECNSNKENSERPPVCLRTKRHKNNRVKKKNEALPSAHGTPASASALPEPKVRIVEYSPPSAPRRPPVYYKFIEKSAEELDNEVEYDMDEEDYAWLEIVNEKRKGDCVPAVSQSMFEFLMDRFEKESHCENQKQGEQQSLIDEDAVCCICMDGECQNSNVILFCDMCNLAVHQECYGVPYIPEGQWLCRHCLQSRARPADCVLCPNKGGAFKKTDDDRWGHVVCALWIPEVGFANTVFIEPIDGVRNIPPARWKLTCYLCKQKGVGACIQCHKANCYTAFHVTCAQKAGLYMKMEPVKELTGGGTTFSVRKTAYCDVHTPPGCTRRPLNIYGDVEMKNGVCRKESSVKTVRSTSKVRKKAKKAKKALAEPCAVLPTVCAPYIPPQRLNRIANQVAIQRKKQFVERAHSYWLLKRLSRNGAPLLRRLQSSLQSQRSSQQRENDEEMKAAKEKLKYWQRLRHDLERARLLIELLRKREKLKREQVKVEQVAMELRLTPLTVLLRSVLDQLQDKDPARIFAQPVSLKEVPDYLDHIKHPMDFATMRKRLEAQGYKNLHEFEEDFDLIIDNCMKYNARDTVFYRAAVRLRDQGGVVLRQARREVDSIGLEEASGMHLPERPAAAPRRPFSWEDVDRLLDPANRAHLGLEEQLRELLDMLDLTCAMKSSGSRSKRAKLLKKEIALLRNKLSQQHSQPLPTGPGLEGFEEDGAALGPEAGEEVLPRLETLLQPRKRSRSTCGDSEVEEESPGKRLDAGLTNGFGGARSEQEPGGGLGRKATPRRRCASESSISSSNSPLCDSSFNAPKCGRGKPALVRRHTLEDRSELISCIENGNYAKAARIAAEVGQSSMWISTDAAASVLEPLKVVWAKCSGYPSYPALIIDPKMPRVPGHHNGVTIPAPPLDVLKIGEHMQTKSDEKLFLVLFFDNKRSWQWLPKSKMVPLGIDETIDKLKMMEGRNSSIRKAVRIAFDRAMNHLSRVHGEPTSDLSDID
A short description of series [3]: Permeability across phosphatidyl choline membrane at pH 7.4 after 3 hrs by HPLC with UV detection method. The format is ADME. Particulars: not told, read-out: permeability.
Series [4] is described as follows: Distribution coefficient, log D of the compound at pH 7.4 by chromatographic method. The format is physicochemical. Particulars: octanol/water.
Series [5] addresses T2, Bromodomain-containing protein 3 (Homo sapiens, UniProt Q15059). Kind of series: Binding affinity to BRD3 containing BD2 bromodomains (unknown origin) by TR-FRET assay. In general terms: In TR-FRET formats the signal depends on donor and acceptor labels being close together.
The target in series [6] is T2, Bromodomain-containing protein 3. As to the kind of experiment: Binding affinity to BRD3 containing BD1 bromodomains (unknown origin) by TR-FRET assay.
The target in series [7] is Nucleosome-remodeling factor subunit BPTF (Homo sapiens, UniProt Q12830). As to the kind of experiment: Binding affinity to BPTF in human HUT78 cells incubated for 45 mins by mass spectrometry based bromosphere chemoproteomic assay. The format is cell-based.
The target in series [8] is Bromodomain and PHD finger-containing protein 3 (Homo sapiens, UniProt Q9ULD4). As to the kind of experiment: Binding affinity to BRPF3 (unknown origin) by BROMOscan panel based assay.
Bromodomain and PHD finger-containing protein 3, sequence (Q9ULD4 whole entry): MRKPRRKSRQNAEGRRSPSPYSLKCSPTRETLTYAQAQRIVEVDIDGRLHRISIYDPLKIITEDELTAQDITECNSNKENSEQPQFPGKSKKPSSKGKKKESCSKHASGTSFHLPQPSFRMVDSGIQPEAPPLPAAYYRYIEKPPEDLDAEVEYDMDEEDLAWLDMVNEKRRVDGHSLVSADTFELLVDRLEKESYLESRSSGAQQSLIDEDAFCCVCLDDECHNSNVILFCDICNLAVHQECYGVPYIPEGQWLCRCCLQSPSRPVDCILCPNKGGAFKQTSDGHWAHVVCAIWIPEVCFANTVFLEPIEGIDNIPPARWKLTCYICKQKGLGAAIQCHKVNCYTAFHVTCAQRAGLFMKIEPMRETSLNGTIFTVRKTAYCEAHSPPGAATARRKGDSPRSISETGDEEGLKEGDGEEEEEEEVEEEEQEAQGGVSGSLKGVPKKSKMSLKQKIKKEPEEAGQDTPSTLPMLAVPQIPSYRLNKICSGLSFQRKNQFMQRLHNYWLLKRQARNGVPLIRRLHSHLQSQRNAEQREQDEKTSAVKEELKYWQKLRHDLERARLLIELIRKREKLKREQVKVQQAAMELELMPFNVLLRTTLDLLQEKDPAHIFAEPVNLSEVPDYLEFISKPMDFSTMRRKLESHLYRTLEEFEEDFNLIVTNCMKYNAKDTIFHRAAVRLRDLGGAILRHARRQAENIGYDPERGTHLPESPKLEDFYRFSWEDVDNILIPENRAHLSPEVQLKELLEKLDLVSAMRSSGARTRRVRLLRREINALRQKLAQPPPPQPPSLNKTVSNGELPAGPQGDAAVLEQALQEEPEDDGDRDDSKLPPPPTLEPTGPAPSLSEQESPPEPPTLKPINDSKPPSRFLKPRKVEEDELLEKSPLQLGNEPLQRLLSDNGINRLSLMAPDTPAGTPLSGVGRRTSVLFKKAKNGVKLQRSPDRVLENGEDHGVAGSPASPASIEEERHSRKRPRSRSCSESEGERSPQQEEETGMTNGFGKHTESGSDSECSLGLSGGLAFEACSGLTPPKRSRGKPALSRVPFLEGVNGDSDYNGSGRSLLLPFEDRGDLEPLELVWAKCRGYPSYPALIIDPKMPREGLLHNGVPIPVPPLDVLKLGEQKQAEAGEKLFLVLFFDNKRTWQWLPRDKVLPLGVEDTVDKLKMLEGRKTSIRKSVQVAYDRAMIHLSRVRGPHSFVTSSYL
The target in series [9] is Histone acetyltransferase KAT2A (Homo sapiens, UniProt Q92830). Kind of series: Binding affinity to KAT2A in human HUT78 cells incubated for 45 mins by mass spectrometry based bromosphere chemoproteomic assay. The series is classed as cell-based.
Series [10] has as its target Bromodomain-containing protein 4 (Homo sapiens, UniProt O60885, Y390A).
For series [11], the target named is SWI/SNF-related matrix-associated actin-dependent regulator of chromatin subfamily A member 4 (Homo sapiens, UniProt P51532). As to the kind of experiment: Binding affinity to SMARCA4 in human HUT78 cells incubated for 45 mins by mass spectrometry based bromosphere chemoproteomic assay. The format is cell-based.
For series [12], the target named is Transcription initiation factor TFIID subunit 1 (Homo sapiens, UniProt P21675). Kind of series: Binding affinity to TAF1 (unknown origin) by BROMOscan panel based assay.
Transcription initiation factor TFIID subunit 1, sequence (P21675 whole entry, the tested form may be a part): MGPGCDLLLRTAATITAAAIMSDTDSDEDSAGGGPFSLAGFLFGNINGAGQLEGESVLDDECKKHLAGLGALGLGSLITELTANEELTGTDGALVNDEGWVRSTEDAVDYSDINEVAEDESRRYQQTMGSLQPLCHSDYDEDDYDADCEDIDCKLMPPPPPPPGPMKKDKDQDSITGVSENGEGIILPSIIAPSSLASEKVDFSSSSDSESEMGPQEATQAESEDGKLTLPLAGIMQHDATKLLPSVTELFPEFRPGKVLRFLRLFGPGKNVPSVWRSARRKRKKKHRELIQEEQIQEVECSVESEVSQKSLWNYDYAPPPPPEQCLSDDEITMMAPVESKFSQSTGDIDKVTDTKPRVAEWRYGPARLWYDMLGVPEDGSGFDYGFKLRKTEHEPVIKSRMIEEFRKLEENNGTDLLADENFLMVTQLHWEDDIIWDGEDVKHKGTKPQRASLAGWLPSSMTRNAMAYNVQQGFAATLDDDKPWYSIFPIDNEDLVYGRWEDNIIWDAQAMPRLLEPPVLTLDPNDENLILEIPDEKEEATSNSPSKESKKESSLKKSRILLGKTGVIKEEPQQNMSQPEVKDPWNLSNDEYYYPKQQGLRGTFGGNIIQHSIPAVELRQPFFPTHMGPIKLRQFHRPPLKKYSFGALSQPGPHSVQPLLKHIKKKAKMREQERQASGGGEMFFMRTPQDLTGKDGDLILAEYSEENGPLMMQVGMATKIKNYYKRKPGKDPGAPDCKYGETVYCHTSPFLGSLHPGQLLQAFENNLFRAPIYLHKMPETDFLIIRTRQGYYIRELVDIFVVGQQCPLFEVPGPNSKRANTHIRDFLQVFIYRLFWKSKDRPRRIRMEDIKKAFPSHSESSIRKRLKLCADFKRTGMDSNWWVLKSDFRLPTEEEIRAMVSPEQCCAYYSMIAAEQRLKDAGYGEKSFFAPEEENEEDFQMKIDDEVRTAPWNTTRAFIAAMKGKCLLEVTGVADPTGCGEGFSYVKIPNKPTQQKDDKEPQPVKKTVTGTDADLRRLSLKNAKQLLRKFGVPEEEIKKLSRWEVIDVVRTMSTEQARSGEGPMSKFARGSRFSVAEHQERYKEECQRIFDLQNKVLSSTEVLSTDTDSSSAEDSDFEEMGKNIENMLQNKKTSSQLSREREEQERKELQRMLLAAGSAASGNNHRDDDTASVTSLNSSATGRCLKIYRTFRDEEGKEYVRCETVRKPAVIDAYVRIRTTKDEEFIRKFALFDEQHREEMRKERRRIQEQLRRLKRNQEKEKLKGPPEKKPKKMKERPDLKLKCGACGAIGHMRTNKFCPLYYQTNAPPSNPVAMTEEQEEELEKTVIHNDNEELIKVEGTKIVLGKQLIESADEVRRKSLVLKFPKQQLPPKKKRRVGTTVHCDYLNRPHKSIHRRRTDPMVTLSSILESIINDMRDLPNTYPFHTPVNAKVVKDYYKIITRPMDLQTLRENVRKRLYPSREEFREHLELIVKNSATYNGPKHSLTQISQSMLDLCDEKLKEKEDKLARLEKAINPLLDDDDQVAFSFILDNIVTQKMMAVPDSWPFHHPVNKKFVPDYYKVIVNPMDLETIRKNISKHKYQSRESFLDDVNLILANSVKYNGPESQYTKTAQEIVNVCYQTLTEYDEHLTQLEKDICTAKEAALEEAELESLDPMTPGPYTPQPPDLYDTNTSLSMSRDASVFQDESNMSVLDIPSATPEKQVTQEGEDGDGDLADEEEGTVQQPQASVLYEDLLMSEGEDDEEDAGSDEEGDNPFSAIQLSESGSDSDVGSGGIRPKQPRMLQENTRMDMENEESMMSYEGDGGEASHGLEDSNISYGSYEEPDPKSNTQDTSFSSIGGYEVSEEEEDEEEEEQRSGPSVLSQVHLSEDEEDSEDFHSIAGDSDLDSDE
The target of series [13] is Bromodomain adjacent to zinc finger domain protein 2A (Homo sapiens, UniProt Q9UIF9). Kind of series: Binding affinity to BAZ2A in human HUT78 cells incubated for 45 mins by mass spectrometry based bromosphere chemoproteomic assay. The format is cell-based.
The target in series [14] is Bromodomain-containing protein 7 (Homo sapiens, UniProt Q9NPI1). As to the kind of experiment: Binding affinity to BRD7 in human HUT78 cells incubated for 45 mins by mass spectrometry based bromosphere chemoproteomic assay. The format is cell-based.
The target of series [15] is T1, Bromodomain-containing protein 4. As to the kind of experiment: Binding affinity to BRD4 containing BD2 bromodomains (unknown origin) by TR-FRET assay.

The structures appear in SMILES notation.

T2 sequence (Q15059 whole entry): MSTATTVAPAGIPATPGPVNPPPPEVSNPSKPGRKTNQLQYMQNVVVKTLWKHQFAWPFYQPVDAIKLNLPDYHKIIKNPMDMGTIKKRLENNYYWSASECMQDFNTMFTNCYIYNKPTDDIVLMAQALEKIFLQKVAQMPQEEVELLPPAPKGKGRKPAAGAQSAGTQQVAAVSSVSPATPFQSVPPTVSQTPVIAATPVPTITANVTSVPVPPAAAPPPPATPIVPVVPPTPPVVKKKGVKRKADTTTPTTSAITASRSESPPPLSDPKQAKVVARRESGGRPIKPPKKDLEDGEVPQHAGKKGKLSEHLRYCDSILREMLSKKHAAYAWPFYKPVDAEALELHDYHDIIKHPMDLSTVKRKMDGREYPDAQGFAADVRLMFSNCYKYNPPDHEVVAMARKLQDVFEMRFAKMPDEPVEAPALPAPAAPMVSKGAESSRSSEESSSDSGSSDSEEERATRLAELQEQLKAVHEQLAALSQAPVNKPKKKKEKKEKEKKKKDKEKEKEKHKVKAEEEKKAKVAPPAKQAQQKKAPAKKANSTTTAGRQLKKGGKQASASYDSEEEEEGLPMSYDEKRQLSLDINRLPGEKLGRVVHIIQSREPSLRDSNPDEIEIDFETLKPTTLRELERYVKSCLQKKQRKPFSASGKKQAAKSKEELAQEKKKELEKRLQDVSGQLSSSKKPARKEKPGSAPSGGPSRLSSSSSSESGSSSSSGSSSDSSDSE
Description for physchem: Solubility of the compound in phosphate buffered saline at pH 7.4 after 1 hr by CLND method

As for `Cc1cncc(-c2cnc(N[C@@H]3CCN(C)C[C@H]3OCC3CCS(=O)(=O)CC3)c3[nH]c(=O)c(C)cc23)c1`, the solubility (kinetic) (commonly the concentration staying in solution when a stock, usually in DMSO, is diluted into the medium) at 1 h in “physchem” was at least 341 µM. The dissociation constant (Kd) (usually a measure of binding affinity in units of concentration) is 20 µM in series [1]; above 100 µM in series [7]; above 100 µM in series [9]; 20 µM in series [11]; above 100 µM in [13]; 31.6 µM in series [14]. For the same compound, the Ki (in general, a measure of affinity in units of concentration, obtained from inhibition or displacement) in [2] was 0.398 µM; in [8] it was 0.794 µM; in series [12] it was 0.0501 µM. Further, the Papp at 3 h in series [3] was below 1 ×10⁻⁶ cm/s. The chromatographic logD (in general, a lipophilicity value derived from retention on a column) in series [4] was 2.3. Also, the IC50 (as a rule, the concentration that gives 50% inhibition) in series [5] is above 50.1 µM; in series [6], above 50.1 µM; in [10], 79.4 µM; in series [15] it was above 501 µM.
